Test results taken from patent publication US10329304B2, “Compounds and methods for inhibition of hedgehog signaling and phosphodiesterase” (Vanderbilt University, priority 2014, dated 2019).
Several values for one entry are separate records, joined by “and”; a condition that tells them apart may be missing. Identical values can stand only once. Entries after “also recorded” stand apart in the source; their conditions may differ. Like-named read-outs stand apart in the source and are kept apart here.

What was measured:
PDE4D = PDE4D (Homo sapiens, UniProt Q08499); experiment: PDE4 inhibition assay (PDE4D IC50); assay type: biochemical; conditions: read-out: PDE4D IC50
In short: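 PDE4D incubated 60 min at room temperature in duplicate with 100 nM FAM-cAMP and compound (1% DMSO final) in Tris-HCl pH7.4, 10 mM MgCl2, 0.05% Tween 20. FAM-AMP detected with binding-agent nanobeads after a further 60 min, read at 485/528 nm.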

zebrafish embryos = experiment: Zebrafish embryo phenotypic assay (ZF); assay type: in vivo; conditions: for Hh-deficient mutant phenotype in embryos: 2 μM from 4 hpf where stated
In short: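 Wild-type AB zebrafish embryos (~10) in E3 egg water dosed at 5 hours post-fertilization from 1 mM or 10 mM DMSO stock. Scored for gross morphological changes at 24, 48 and 72 hpf. Screening run used 5 μM final, added ~4 hpf, incubated at 28.5 °C.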

[1] = test system: Hedgehog signaling (Gli-Luc reporter); experiment: Hh Gli-Luciferase reporter assay in Shh-Light2 cells; assay type: cell-based, mouse; conditions: for IC50 / EC50: Mus musculus, Shh Light2; for Sonic hedgehog (SHH)-responsive Gli-luciferase reporter activity: Shh-conditioned media; for Purmorphamine-induced Gli-Luc reporter activity: purmorphamine 3 μM; for EC50: Table 9A, read-out: Shh Light2 Luc EC50
In short: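 Shh-Light2 cells with stable Gli-luciferase were stimulated by Shh-conditioned medium (or 3 μM purmorphamine or 20 nM SAG), or transfected with Gli-2, PDE4D3 or DN-PDE4D3. Overnight compound incubation preceded Steady-Glo read-out, normalized to CellTiter-Glo.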

ptch1 expression = experiment: RT-PCR of ptch1 in NIH3T3 cells stimulated with purmorphamine; assay type: cell-based; conditions: NIH3T3 fibroblasts
Description: NIH3T3 cells were stimulated with 3 μM purmorphamine in the presence of eggmanone or DMSO for 24-hours. Cells were collected and RNA isolated with RNeasy kit (Qiagen, Valencia, Calif.). After subsequent cDNA amplification using Superscript III (Invitrogen, Carlsbad, Calif.), samples were quantified by comparing Q-PCR cycle thresholds (Ct) for gene expression normalized to GAPDH. The following TaqMan probe and primer sets (Applied Biosystems) were used: GAPDH (Mm99999915_g1), and Patch1 (Mm01306905_mi).

[2] = test system: total cellular cAMP levels; experiment: cAMP assay (total cellular cAMP, EIA chemiluminescence); assay type: cell-based
Description: Shh-Light2 cells were seeded in a 96-well plate and incubated overnight. Varying concentrations of Rolipram or Eggmanone (0.013 uM-30 uM) or DMSO only were added to the cells in the absence of serum and incubated 30 minutes, at which time forskolin was added for a final concentration of 1 uM. After an additional 15 minutes, cells were washed with PBS and assayed for cAMP levels using EIA based chemiluminescence kit according to the manufacturer's protocol (Cell Signaling Technologies, Danvers, Mass.).

BMP signaling (BRE-luc) = experiment: BMP4-responsive reporter (BRE-luc) in C2C12BRA cells; assay type: cell-based; conditions: stimulated with BMP4 ligand
DU145 = experiment: Cell viability assay (CellTiter-Blue, 72 hr); assay type: cell-based, Human
In short: (§1)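 Compound-treated cells seeded at low density; signal taken at 590 nm relative to DMSO.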

HeLa = experiment: Cell viability assay (CellTiter-Blue, 72 hr); assay type: cell-based, Human
In short: as §1

SW480 = experiment: Cell viability assay (CellTiter-Blue, 72 hr); assay type: cell-based, Human; conditions: SW480; human cancer cells; read-out: CELL KILLING EC50 (μM) Colon SW480
In short: as §1

[3] = DU-145, human cancer cells, read-out: CELL KILLING EC50 (μM) Prostate DU145
[4] = human cancer cells, read-out: CELL KILLING EC50 (μM) Cervix HeLa

`C=C(C)Cn1c(SCC(=O)c2ccccc2)nc2sc3c(c2c1=O)CCCC3` [Formula 9g] showed an IC50 (PDE4D; mean ± SEM, normalized to DMSO) of 0.965 ± 0.1 µM.
For `O=C(CSc1nc2sc3c(c2c(=O)n1C1CC1)CCCC3)c1cccs1` [JEH-3-039-2], the “ZF Phenotype EC100” value (zebrafish embryos; wild-type embryonic zebrafish, dosed 5 hpf) was 0.1 µM.
`C=C(C)Cn1c(SCC(=O)c2cccs2)nc2sc3c(c2c1=O)CCCC3` [Eggmanone, 3-(2-methylallyl)-2-((2-oxo-2-(thiophen-2-yl)ethyl)thio)-5,6,7,8-tetrahydrobenzo[4,5]thieno[2,3-d]pyrimidine-4(3H)-one] was tested, and the IC50 [1] was 1.5 µM, the “Sonic hedgehog (SHH)-responsive Gli-luciferase reporter activity” value (from here on “Sonic hedgehog”) [1] was “inhibited Hh-inducible Gli-responsive luciferase (Gli-Luc) activity in a dose dependent manner” and the “Sonic hedgehog” value ([1]; listed as eggmanone) was “inhibited Hh-inducible Gli-responsive luciferase (Gli-Luc) activity in a dose dependent manner”. For the same compound, the “Purmorphamine-induced Gli-Luc reporter activity” value [1] was “blocked Gli-Luc reporter and ptch1 induction by purmorphamine”, the “ptch1 expression in response to purmorphamine” value (ptch1 expression) was “significantly inhibited ptch1 expression in response to purmorphamine” and the IC50 (PDE4D) was 0.89 µM and 0.893 µM. The “Total cellular cAMP levels” value [2] was “had no effect on total cellular cAMP content; also recorded: did not significantly increase total cAMP levels”, the “Total cellular cAMP levels” value ([2]; listed as eggmanone) was “did not increase total cAMP levels” and the “Hh-deficient mutant phenotype in embryos” value (zebrafish embryos) was “caused a number of phenotypes resembling those of Hh-deficient mutant embryos; also recorded: exhibited range of phenotypes found in Hh pathway mutants”. For the same compound, the “Hh-deficient mutant phenotype in embryos” value (zebrafish embryos; listed as eggmanone) was “caused a number of phenotypes resembling those of Hh-deficient mutant embryos”, the “BMP4-responsive reporter (BRE-luc) activity” value (shortened to “BMP4-responsive reporter”) (BMP signaling (BRE-luc)) was “did not affect BMP-responsive luciferase reporter activity; also recorded: had no significant effects on BMP4-responsive reporter (BRE-luc) activity” and the “BMP4-responsive reporter” value (BMP signaling (BRE-luc); listed as eggmanone) was “did not affect BMP-responsive luciferase reporter activity”.
For `C=C(C)Cn1c(SCC(=O)c2nccs2)nc2sc3c(c2c1=O)CCCC3` [JEH-3-069-1], the EC50 [1] was 10 to 20 µM, the EC50 (DU145; [3]) was 47.5 µM and the EC50 (HeLa; [4]) was 100 µM. For the same compound, the EC50 (SW480) was 6.92 µM.
For `C=C(C)Cn1c(SCC(=O)c2ccccn2)nc2sc3c(c2c1=O)CCCC3` [JEH-3-063], the IC50 [1] was 15 µM, the EC50 [1] was 10 to 20 µM and the EC50 (DU145; DU-145, 72 h, read-out: EC50 (50% reduction of viable cell count at 72 hours), DU145, Human Prostate Adenocarcinoma) was 0.684 µM. For the same compound, the EC50 (DU145; [3]) was 0.684 µM, the EC50 (HeLa; 72 h, read-out: EC50 (50% reduction of viable cell count at 72 hours), Human Cervical Adenocarcinoma) was 9.2 µM and the EC50 (HeLa; [4]) was 9.18 µM. For the same compound, the EC50 (SW480) was 8.05 µM and the IC50 (PDE4D) was 4.9 µM.
For `CCCn1c(SCC(=O)c2cccs2)nc2sc3c(c2c1=O)CCCC3` [Formula 9e], the IC50 (PDE4D; mean ± SEM, normalized to DMSO) was 0.486 ± 0.001 µM.
With `C=C(C)Cn1c(SCC(=O)c2cccs2)nc2sc3c(c2c1=O)CCCC3` [EGM, Eggmanone] the “Sonic hedgehog” value [1] was “inhibited Sonic hedgehog (SHH)-responsive Gli-luciferase (Gli-Luc) reporter activity in a dose-dependent manner”, the “Purmorphamine-induced Gli-Luc reporter activity” value [1] was “inhibited purmorphamine (Purm, 3 μM)-induced Gli-Luc reporter activity in a dose-dependent manner” and the EC50 (DU145; [3]) was 41.9 µM. For the same compound, the EC50 (HeLa; [4]) was 12.4 µM, the EC50 (SW480) was 0.534 µM and the “ptch1 expression in response to purmorphamine” value (ptch1 expression) was “significantly inhibited ptch1 expression in response to purmorphamine”. The “Total cellular cAMP levels” value [2] was “without raising total cellular cAMP content”, the “Total cellular cAMP levels” value ([2]; listed as Egm) was “only caused small increase at concentrations above those required to inhibit Hh signaling” and the “Hh-deficient mutant phenotype in embryos” value (zebrafish embryos) was “exhibited range of phenotypes found in Hh pathway mutants”. The “BMP4-responsive reporter” value (BMP signaling (BRE-luc)) was “had no significant effects on BMP4-responsive reporter (BRE-luc) activity”.
`C=C(C)Cn1c(SCC(=O)c2ccncc2)nc2sc3c(c2c1=O)CCCC3` [JEH-3-048-1] was tested, and the IC50 [1] was 10 µM, the EC50 (DU145; [3]) was 100 µM and the EC50 (HeLa; [4]) was 23.6 µM. The EC50 (SW480) was 1.87 µM and the IC50 (PDE4D) was 16 µM.
`C=CCn1c(SCC(=O)c2cccs2)nc2sc3c(c2c1=O)CCCC3` [JEH-3-039-3] gave an EC50 (DU145; [3]) of 71 µM, an EC50 (HeLa; [4]) of 36.9 µM and an EC50 (SW480) of 3.63 µM.
